Assay results from PMC6021111, “Murine leukemia virus p12 tethers the capsid-containing pre-integration complex to chromatin by binding directly to host nucleosomes in mitosis” (PLoS Pathogens, 2018).

What was measured:
[1] = tested on: GST-p12_M63I phosphorylation in 293T cells; assay: Kinase inhibition, GST-p12_M63I phosphorylation (PQ/SR); format: cell-based; conditions: 3.5 h with nocodazole and 10 μM MG132, LiCl 40 mM, roscovitine 75 μM, kenpaullone 40 μM
Description: (§1) Glycogen synthase kinase 3 (GSK3) and cyclin-dependent kinase 5 (CDK5) were predicted to phosphorylate Mo-MLV p12 on S61, by the NetPhos 3.1 kinase prediction algorithm. […] These drugs were tested in our biochemical assays for their ability to reduce GST-p12_M63I phosphorylation and chromatin association. In our assays, cells transiently-expressing GST-p12_M63I were cultured in media containing nocodazole overnight, prior to the addition of the kinase inhibitors. […] After removal of the drugs, cells were immediately washed and lysed for glutathione-sepharose bead pull-down assays. The eluates from the beads were analysed by SDS-PAGE followed by sequential staining with PQ and SR dyes to quantify the phosphorylation levels of GST-p12_M63I. LiCl treatment had little effect on GST-p12_M63I phosphorylation (Fig 7A, lane 2). […] To correlate GST-p12_M63I phosphorylation with its ability to interact with chromatin, we quantified the amounts of H2B in the pull-down eluates by immunoblotting. […] The short period of kinase inhibition used in our assays, may have limited the effects observed on GST-p12_M63I phosphorylation.
(§2) GST-p12 proteins were expressed in 293T cells from pCAGGS/GST-derived plasmids by transient transfection using Turbofect (Thermo Fisher Scientific). Approximately 24 h after transfection, cells were changed into fresh media containing either 400 ng/ml nocodazole (Sigma) or 2 μg/ml aphidicolin (Sigma) and incubated overnight at 37°C. The synchronisation of the cell cultures after drug treatment was assessed by propidium iodide staining and cell cycle phase analysis by flow cytometry. Cells to be used in pull down assays were washed and lysed in 20 mM Tris pH 8.0, 300 mM NaCl, 1 mM EDTA, 10% Glycerol, 1% Triton X-100, protease inhibitors (Roche), phosphatase inhibitors (Merck). Lysis was facilitated by passing the lysates through a 19-gauge needle x7 and sonication, x7 pulses, 30 s ON and 30 s OFF, in an ice bath (Decon FS100). […] ProQ diamond and Sypro ruby staining (Thermo Fisher Scientific) of gels was visualised and quantified on a ChemiDoc imaging system (Bio-Rad). […]

[2] = tested on: H2B precipitation with GST-p12_M63I, 293T cells; assay: Kinase inhibition, H2B pull-down with GST-p12_M63I; format: cell-based; conditions: 3.5 h with nocodazole and 10 μM MG132; roscovitine 75 μM, kenpaullone 40 μM; immunoblot
Description: as §1, §2

[3] = tested on: Glycogen synthase kinase 3 (GSK3); conditions: cited from earlier work
[4] = tested on: cyclin-dependent kinase 5 (CDK5); parameters: method as in PMID 12534346; conditions: cited from earlier work
[5] = biological target: T1, recombinant H3.3 poly-nucleosomes (Homo sapiens, UniProt P62807+P84243+Q93077); assay: Biolayer interferometry, peptide binding to poly-nucleosomes; conditions: BLI; biotinylated peptide on streptavidin sensor; HEPES pH 7.5, 150 mM NaCl, 25°C
T1 construct: purchased Active Motif
Excerpt: To identify whether p12 proteins also interact directly with nucleosomes, we used biolayer interferometry (BLI) to probe the binding of recombinant poly-nucleosomal arrays by p12 CTD peptides (Fig 9). Streptavidin sensor probes coated with biotinylated peptide ligands were immersed in ‘analyte’ solutions containing the in vitro assembled nucleosomal arrays to observe any potential interactions. The p12 CTD peptide sequences used are highlighted in bold in Fig 5C. A peptide carrying the PFV hCBS sequence was included in the assays as a positive control.
The binding of PFV hCBS and p12 CTD peptides to recombinant H3.3 poly-nucleosomes (Active Motif) was measured using biolayer interferometry on an Octet RED system (Pall ForteBio Corp). The peptides were synthesised with a N-terminal biotin tag and GGGG linker. The Mo-MLV, FeLV and GaLV p12 CTD peptide sequences used are highlighted in bold in Fig 5C. A negative control was included that contained an R66A change in the Mo-MLV p12_M63I CTD peptide. Mo-MLV phos p12_M63I CTD was also synthesised with a phosphorylated S61 residue. […] Equilibrium binding amplitudes were determined by exponential least squares curve fitting of the association phase. […] Equilibrium binding constant (Kd) and maximum specific binding (Bmax) were calculated by fitting the data to a non-linear regression model. […]

[6] = tested on: nucleosome binding to immobilised biotinylated hCBS; assay: BLI competition, nucleosome binding to immobilised hCBS; conditions: soluble peptide 100 μM; three technical replicates
Description: A negative control was included that contained an R66A change in the Mo-MLV p12_M63I CTD peptide. […] The biotinylated peptides were loaded onto streptavidin biosensors (Pall ForteBio Corp) at 0.5 μg/ml for 120 s in 10 mM HEPES pH 7.5, 150 mM NaCl, 0.005% (v/v) Tween 20. […] Experiments were performed at 25°C and sample plates were agitated at 1000 rpm. […] For competition assays, soluble non-biotin tagged peptides were added to the nucleosomal arrays at 100 μM to inhibit nucleosome binding prior to recording BLI measurements with biotinylated peptide immobilised on sensor probes.

nucleosomes = conditions: cited from earlier work
Excerpt: To identify whether p12 binds to the same nucleosomal docking site as the CBS from PFV Gag, we then tested the ability of p12 CTD peptides to block the binding of nucleosomal arrays to hCBS and vice versa (Fig 9E and 9F).

## O=C1Cc2c([nH]c3ccc(Br)cc23)-c2ccccc2N1 [kenpaullone]
[1]
  reduction of GST-p12_M63I phosphorylation by kinase inhibitor: ~ 3 fold
[2]
  reduction of H2B precipitation by kinase inhibitor: ~ 3.5 fold
[3]
  inhibition of GSK3: inhibits both enzymes
[4]
  inhibition of CDK5: inhibits both enzymes

## CC[C@H](C)[C@H](NC(=O)[C@@H]1CCCN1C(=O)[C@H](CO)NC(=O)[C@@H]1CCCN1C(=O)[C@H](CC(=O)O)NC(=O)CNC(=O)CNC(=O)CNC(=O)CNC(=O)CCCC[C@@H]1SC[C@@H]2NC(=O)N[C@@H]21)C(=O)N[C@@H](C)C(=O)N[C@@H](CO)C(=O)N[C@@H](CCCNC(=N)N)C(=O)N[C@@H](CC(C)C)C(=O)N[C@@H](CCCNC(=N)N)C(=O)NCC(=O)N[C@@H](CCCNC(=N)N)C(=O)N[C@@H](CCCNC(=N)N)C(=O)N[C@@H](CCC(=O)O)C(=O)N1CCC[C@H]1C(=O)N1CCC[C@H]1C(=O)N[C@H](C(=O)O)C(C)C [non-phosphorylated p12_M63I]
[5]
  binding to nucleosomal arrays: clear binding to nucleosomes

## CC[C@H](C)[C@H](NC(=O)[C@@H]1CCCN1C(=O)[C@H](COP(=O)(O)O)NC(=O)[C@@H]1CCCN1C(=O)[C@H](CC(=O)O)NC(=O)CNC(=O)CNC(=O)CNC(=O)CNC(=O)CCCC[C@@H]1SC[C@@H]2NC(=O)N[C@@H]21)C(=O)N[C@@H](C)C(=O)N[C@@H](CO)C(=O)N[C@@H](CCCNC(=N)N)C(=O)N[C@@H](CC(C)C)C(=O)N[C@@H](CCCNC(=N)N)C(=O)NCC(=O)N[C@@H](CCCNC(=N)N)C(=O)N[C@@H](CCCNC(=N)N)C(=O)N[C@@H](CCC(=O)O)C(=O)N1CCC[C@H]1C(=O)N1CCC[C@H]1C(=O)N[C@H](C(=O)O)C(C)C [phosphorylated p12_M63I]
[5]
  binding to nucleosomal arrays: clear binding to nucleosomes

## DPSPMASALRGRREPPY [p12_R66A, soluble Mo-MLV p12 CTD peptide with R66A]
[6]
  decrease of equilibrium binding of nucleosomes to immobilised hCBS: not hCBS_L539A/R540A or p12_R66A peptides

## NQGGYNAAPRTYQP [hCBS_L539A/R540A, hCBS peptide with L539A/R540A mutations, reference compound]
[6]
  decrease of equilibrium binding of nucleosomes to immobilised hCBS: not hCBS_L539A/R540A or p12_R66A peptides
nucleosomes
  binding of hCBS peptides to nucleosomes: prevent binding of hCBS peptides to nucleosomes
